Data reported in ChEMBL document CHEMBL1201862, “PubChem BioAssay data set” (2004).
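Each compound was tested at five concentrations against cells in 96-well plates for 48 hours. The concentration for 50% growth inhibition is given as GI50.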 The source made the active and inactive calls. No stated cut-off is given here; in the data, active = GI50 up to about 1.1 µM and inactive = higher.

Experiments:
Assay in all cases: NCI anticancer screen, dose series, 48 h
[1] = tested on: A498
[2] = tested on: BT-549
[3] = tested on: EKVX
[4] = tested on: HOP-62
[5] = tested on: HOP-92
[6] = tested on: Hs-578T
[7] = tested on: IGROV-1
[8] = tested on: MCF7
[9] = tested on: NCI/ADR-RES
[10] = tested on: RPMI-8226
[11] = tested on: RXF 393
[12] = tested on: SF-268
[13] = tested on: SK-MEL-28
[14] = tested on: SW-620
[15] = tested on: TK-10
[16] = tested on: U-251
[17] = tested on: UACC-257
[18] = tested on: UACC-62
[19] = tested on: MOLT-4
[20] = tested on: T47D

Compound	GI50 [1]	GI50 [2]	GI50 [3]	GI50 [4]	GI50 [5]	GI50 [6]	GI50 [7]	GI50 [8]	GI50 [9]	GI50 [10]	GI50 [11]	GI50 [12]	GI50 [13]	GI50 [14]	GI50 [15]	GI50 [16]	GI50 [17]	GI50 [18]	GI50 [19]	GI50 [20]
CC(NC(=O)c1ccc(Cl)c(Cl)c1)c1ccc(-c2ccccc2)cc1 (stereo unspecified)	28.9 µM (inactive)	66.5 µM (inactive)	35 µM (inactive)	22.2 µM (inactive)	25.5 µM (inactive)	27 µM (inactive)	32.8 µM (inactive)	78 µM (inactive)	54.8 µM (inactive)	39.4 µM (inactive)	12.1 µM (inactive)	29.3 µM (inactive)	58.6 µM (inactive)	79.4 µM (inactive)	29 µM (inactive)	31.7 µM (inactive)	76.2 µM (inactive)	31.6 µM (inactive)	–	–
CCN(CC)C1Oc2cc3c(cc2C(c2cccc(OC)c2OC)C1C)OCO3 (stereo unspecified)	5.81 µM (inactive)	3.4 µM (inactive)	13.1 µM (inactive)	10.8 µM (inactive)	–	3.66 µM (inactive)	4.58 µM (inactive)	5.08 µM (inactive)	–	1.48 µM (inactive)	2.23 µM (inactive)	7.91 µM (inactive)	14.9 µM (inactive)	4.24 µM (inactive)	5.77 µM (inactive)	4.33 µM (inactive)	3.95 µM (inactive)	11.4 µM (inactive)	4.01 µM (inactive)	3.42 µM (inactive)
c1cc2c(cc1[C@@H]1OC[C@@H]3[C@H]1CO[C@H]3c1ccc3c(c1)OCO3)OCO2	> 100 µM (inactive)	–	29.7 µM (inactive)	> 100 µM (inactive)	69.3 µM (inactive)	–	87.1 µM (inactive)	34.9 µM (inactive)	36.6 µM (inactive)	46.3 µM (inactive)	20.8 µM (inactive)	> 100 µM (inactive)	> 100 µM (inactive)	58.3 µM (inactive)	30.3 µM (inactive)	60.4 µM (inactive)	13.7 µM (inactive)	> 100 µM (inactive)	28.4 µM (inactive)	46.3 µM (inactive)
Cc1c(Cl)c(=O)oc2cc(OCC(O)COC(C)C)ccc12 (stereo unspecified)	–	–	37.1 µM (inactive)	38.7 µM (inactive)	35 µM (inactive)	48.4 µM (inactive)	65.8 µM (inactive)	22 µM (inactive)	75.7 µM (inactive)	50.6 µM (inactive)	–	97.1 µM (inactive)	> 100 µM (inactive)	34.4 µM (inactive)	35.2 µM (inactive)	44.9 µM (inactive)	74 µM (inactive)	74.6 µM (inactive)	27.5 µM (inactive)	69.7 µM (inactive)
Cc1cc(S(=O)(=O)N/C(=C(\C#N)C(=O)c2ccc(Cl)cc2)[n+]2ccc(N(C)C)cc2)c([S-])cc1Cl	12.3 µM (inactive)	> 100 µM (inactive)	–	38.1 µM (inactive)	< 0.01 µM (active)	–	> 100 µM (inactive)	71.3 µM (inactive)	73.3 µM (inactive)	45.2 µM (inactive)	> 100 µM (inactive)	76.6 µM (inactive)	> 100 µM (inactive)	–	43.2 µM (inactive)	> 100 µM (inactive)	< 0.01 µM (active)	> 100 µM (inactive)	> 100 µM (inactive)	> 100 µM (inactive)
CC1=C/C(=N\N(C)C)C(C(O)(C(F)(F)F)C(F)(F)F)C(C)(C)C1 (stereo unspecified)	> 100 µM (inactive)	–	> 100 µM (inactive)	> 100 µM (inactive)	0.169 µM (active)	72.4 µM (inactive)	> 100 µM (inactive)	> 100 µM (inactive)	> 100 µM (inactive)	46.8 µM (inactive)	> 100 µM (inactive)	> 100 µM (inactive)	> 100 µM (inactive)	> 100 µM (inactive)	> 100 µM (inactive)	> 100 µM (inactive)	> 100 µM (inactive)	> 100 µM (inactive)	97.1 µM (inactive)	> 100 µM (inactive)
CC(C)(C)OC(=O)CC(NC(=O)OC(C)(C)C)C(=O)N[C@@H]1CCCC[C@H]1C(=O)OCc1ccccc1 (stereo partly specified)	–	–	62.2 µM (inactive)	27.8 µM (inactive)	53.2 µM (inactive)	15.7 µM (inactive)	37 µM (inactive)	26.9 µM (inactive)	33.3 µM (inactive)	20.5 µM (inactive)	> 100 µM (inactive)	77.3 µM (inactive)	> 100 µM (inactive)	37.5 µM (inactive)	17.8 µM (inactive)	19.5 µM (inactive)	30.2 µM (inactive)	16.2 µM (inactive)	17 µM (inactive)	22.3 µM (inactive)
O=C(O)Cc1c(-c2ccc([N+](=O)[O-])cc2)c(=O)oc2cc(O)ccc12	22.4 µM (inactive)	23.8 µM (inactive)	15.1 µM (inactive)	–	–	25.9 µM (inactive)	61.4 µM (inactive)	32.5 µM (inactive)	20 µM (inactive)	19.9 µM (inactive)	30.3 µM (inactive)	34.8 µM (inactive)	38 µM (inactive)	34.8 µM (inactive)	33.2 µM (inactive)	15.7 µM (inactive)	20.4 µM (inactive)	38.9 µM (inactive)	4.12 µM (inactive)	–
COc1cc(NC(C)c2ccc3c(c2)OCCO3)cc(OC)c1OC (stereo unspecified)	77.1 µM (inactive)	33 µM (inactive)	33 µM (inactive)	58.7 µM (inactive)	> 100 µM (inactive)	20.9 µM (inactive)	59.3 µM (inactive)	29.6 µM (inactive)	22.9 µM (inactive)	23.9 µM (inactive)	27.3 µM (inactive)	26.7 µM (inactive)	56.4 µM (inactive)	33.9 µM (inactive)	63 µM (inactive)	29.5 µM (inactive)	28.7 µM (inactive)	29.9 µM (inactive)	26.3 µM (inactive)	–
CN(C)Cc1cc(C=O)cc(CN(C)C)c1O	> 100 µM (inactive)	> 100 µM (inactive)	> 100 µM (inactive)	> 100 µM (inactive)	> 100 µM (inactive)	> 100 µM (inactive)	> 100 µM (inactive)	> 100 µM (inactive)	> 100 µM (inactive)	> 100 µM (inactive)	> 100 µM (inactive)	> 100 µM (inactive)	> 100 µM (inactive)	> 100 µM (inactive)	> 100 µM (inactive)	> 100 µM (inactive)	> 100 µM (inactive)	–	> 100 µM (inactive)	–
O=C1CSC(=O)/C1=C\NNc1nc2ccccc2o1	25.5 µM (inactive)	–	34.5 µM (inactive)	51.8 µM (inactive)	23.3 µM (inactive)	52.7 µM (inactive)	–	59.3 µM (inactive)	12.5 µM (inactive)	–	21.8 µM (inactive)	30.5 µM (inactive)	67 µM (inactive)	29.8 µM (inactive)	53.3 µM (inactive)	–	29.7 µM (inactive)	18 µM (inactive)	21 µM (inactive)	6.34 µM (inactive)
O=C(c1ccccc1)C1C(C(=O)c2ccccc2)N1Cc1ccccc1 (stereo unspecified)	33 µM (inactive)	25.9 µM (inactive)	28.3 µM (inactive)	30.5 µM (inactive)	26 µM (inactive)	32.3 µM (inactive)	49.8 µM (inactive)	–	33.5 µM (inactive)	48.9 µM (inactive)	–	37.1 µM (inactive)	32.7 µM (inactive)	44.1 µM (inactive)	46.9 µM (inactive)	27.6 µM (inactive)	38.6 µM (inactive)	15.7 µM (inactive)	40.6 µM (inactive)	11.6 µM (inactive)
CSc1nc(-c2cc3c(c(SC)n2)CCC3)cc2c1CCC2	> 100 µM (inactive)	> 100 µM (inactive)	> 100 µM (inactive)	> 100 µM (inactive)	–	–	–	–	> 100 µM (inactive)	> 100 µM (inactive)	> 100 µM (inactive)	> 100 µM (inactive)	> 100 µM (inactive)	> 100 µM (inactive)	> 100 µM (inactive)	> 100 µM (inactive)	> 100 µM (inactive)	> 100 µM (inactive)	> 100 µM (inactive)	–
CCOn1c(C2(CC3CCN(C(=O)c4ccccc4)CC3)OCCO2)cc2ccccc21	12.9 µM (inactive)	19.4 µM (inactive)	20.8 µM (inactive)	15.1 µM (inactive)	10.9 µM (inactive)	–	15 µM (inactive)	14.8 µM (inactive)	16.9 µM (inactive)	8.51 µM (inactive)	17.4 µM (inactive)	19.3 µM (inactive)	13.2 µM (inactive)	15.8 µM (inactive)	12.2 µM (inactive)	16.3 µM (inactive)	11.1 µM (inactive)	11 µM (inactive)	12.8 µM (inactive)	18.9 µM (inactive)
Cc1ccnc2nc(-c3cccc4ccccc34)cc(O)c12	0.00167 µM (active)	14.1 µM (inactive)	0.0272 µM (active)	0.537 µM (active)	0.00123 µM (active)	0.0141 µM (active)	0.043 µM (active)	0.0304 µM (active)	0.00237 µM (active)	0.00682 µM (active)	0.0879 µM (active)	0.00867 µM (active)	0.00395 µM (active)	0.00379 µM (active)	0.454 µM (active)	0.00445 µM (active)	23.1 µM (inactive)	0.00196 µM (active)	0.00989 µM (active)	–
